Laboratory results published in ChEMBL document CHEMBL1201862, “PubChem BioAssay data set” (2004).
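Following 48 hours of exposure in 96-well plates, responses at five concentrations were used to interpolate endpoints linearly. GI50 = concentration required for 50% inhibition of growth.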 Calls of active or inactive are those of the source. No stated cut-off is given here; in the data, active = GI50 up to about 1.1 µM and inactive = higher.

Legend:
Assay in all cases: DTP human tumour cell line panel, 48 h
OVCAR-5 = tested on: OVCAR-5
NCI-H460 = tested on: NCI-H460
HOP-92 = tested on: HOP-92
SN12C = tested on: SN12C
SF-539 = tested on: SF-539
HT-29 = tested on: HT-29
HOP-62 = tested on: HOP-62
OVCAR-4 = tested on: OVCAR-4
HCT-15 = tested on: HCT-15
IGROV-1 = tested on: IGROV-1
TK-10 = tested on: TK-10
RXF 393 = tested on: RXF 393
OVCAR-3 = tested on: OVCAR-3
SF-268 = tested on: SF-268
EKVX = tested on: EKVX
CCRF-CEM = tested on: CCRF-CEM

Row | SMILES | GI50 (OVCAR-5) | GI50 (NCI-H460) | GI50 (HOP-92) | GI50 (SN12C) | GI50 (SF-539) | GI50 (HT-29) | GI50 (HOP-62) | GI50 (OVCAR-4) | GI50 (HCT-15) [µM] | GI50 (IGROV-1) | GI50 (TK-10) | GI50 (RXF 393) | GI50 (OVCAR-3) | GI50 (SF-268) | GI50 (EKVX) | GI50 (CCRF-CEM)
1 | CC1(C)C(=NN=C(N)N)C(C)(C)C1=NN=C(N)N | > 100 µM (inactive) | > 100 µM (inactive) | > 100 µM (inactive) | > 100 µM (inactive) | > 100 µM (inactive) | > 100 µM (inactive) | > 10 µM (inactive) | > 100 µM (inactive) | > 100 | > 100 µM (inactive) | > 100 µM (inactive) | > 100 µM (inactive) | > 100 µM (inactive) | > 100 µM (inactive) | – | –
2 | Cc1cc(=O)c2c(O)cc3c(c2o1)CC=C(COC1OC(COC2OC(CO)C(O)C(O)C2O)C(O)C(O)C1O)CO3 (configuration not stated) | > 100 µM (inactive) | > 100 µM (inactive) | > 100 µM (inactive) | > 100 µM (inactive) | > 100 µM (inactive) | – | > 100 µM (inactive) | > 100 µM (inactive) | > 100 | > 100 µM (inactive) | > 100 µM (inactive) | – | > 100 µM (inactive) | > 100 µM (inactive) | > 100 µM (inactive) | > 100 µM (inactive)
3 | COc1ccc2c3c1C(=O)CCC3CO2 (configuration not stated) | > 100 µM (inactive) | > 100 µM (inactive) | > 100 µM (inactive) | > 100 µM (inactive) | > 100 µM (inactive) | > 100 µM (inactive) | > 100 µM (inactive) | > 100 µM (inactive) | > 100 | > 100 µM (inactive) | > 100 µM (inactive) | – | > 100 µM (inactive) | > 100 µM (inactive) | 91 µM (inactive) | > 100 µM (inactive)
4 | CC(=O)c1cccc(NCn2nnc3ccccc32)c1 | – | > 100 µM (inactive) | > 100 µM (inactive) | > 100 µM (inactive) | > 100 µM (inactive) | > 100 µM (inactive) | > 100 µM (inactive) | > 100 µM (inactive) | > 100 | > 100 µM (inactive) | > 100 µM (inactive) | > 100 µM (inactive) | > 100 µM (inactive) | > 100 µM (inactive) | > 100 µM (inactive) | > 100 µM (inactive)
5 | Cc1cn(C2CC(n3cncn3)C(C(C)O)O2)c(=O)[nH]c1=O (configuration not stated) | > 100 µM (inactive) | > 100 µM (inactive) | > 100 µM (inactive) | > 100 µM (inactive) | > 100 µM (inactive) | > 100 µM (inactive) | – | > 100 µM (inactive) | > 100 | > 100 µM (inactive) | > 100 µM (inactive) | > 100 µM (inactive) | > 100 µM (inactive) | > 100 µM (inactive) | > 100 µM (inactive) | > 100 µM (inactive)
6 | C=C(CN(C)C)C(=O)c1ccc(C(=O)C(=C)CN(C)C)cc1 | > 100 µM (inactive) | > 100 µM (inactive) | > 100 µM (inactive) | > 100 µM (inactive) | > 100 µM (inactive) | > 100 µM (inactive) | – | > 100 µM (inactive) | > 100 | > 100 µM (inactive) | > 100 µM (inactive) | > 100 µM (inactive) | > 100 µM (inactive) | > 100 µM (inactive) | > 100 µM (inactive) | > 100 µM (inactive)
7 | O=C(O)CCNS(=O)(=O)c1ccc([N+](=O)[O-])cc1 | > 100 µM (inactive) | > 100 µM (inactive) | > 100 µM (inactive) | > 100 µM (inactive) | > 100 µM (inactive) | > 100 µM (inactive) | – | > 100 µM (inactive) | > 100 | > 100 µM (inactive) | > 100 µM (inactive) | > 100 µM (inactive) | > 100 µM (inactive) | > 100 µM (inactive) | > 100 µM (inactive) | > 100 µM (inactive)
8 | CC1(C)OC(=S)N(c2ccccc2)C12C=Cc1cc3ccccc3nc1S2 (configuration not stated) | > 100 µM (inactive) | 84.9 µM (inactive) | 40.3 µM (inactive) | > 100 µM (inactive) | > 100 µM (inactive) | 40.4 µM (inactive) | > 100 µM (inactive) | – | > 100 | > 100 µM (inactive) | > 100 µM (inactive) | 55.6 µM (inactive) | > 100 µM (inactive) | > 100 µM (inactive) | > 100 µM (inactive) | 29.9 µM (inactive)
9 | CN1C2C=C(c3ccccc3)CC1CC2 (configuration not stated) | > 100 µM (inactive) | > 100 µM (inactive) | > 100 µM (inactive) | > 100 µM (inactive) | > 100 µM (inactive) | > 100 µM (inactive) | – | – | > 100 | > 100 µM (inactive) | > 100 µM (inactive) | > 100 µM (inactive) | > 100 µM (inactive) | > 100 µM (inactive) | > 100 µM (inactive) | > 100 µM (inactive)
10 | CCOc1cccc2ccc[n+](CC)c12 | > 100 µM (inactive) | 75.7 µM (inactive) | 61 µM (inactive) | 53.1 µM (inactive) | > 100 µM (inactive) | 47.3 µM (inactive) | > 100 µM (inactive) | 55.1 µM (inactive) | – | > 100 µM (inactive) | > 100 µM (inactive) | > 100 µM (inactive) | 56.1 µM (inactive) | 12.2 µM (inactive) | > 100 µM (inactive) | 55.8 µM (inactive)
11 | Nc1ccc(C(=O)NN2C(=O)C(Cl)C2c2ccccc2Cl)cc1 (configuration not stated) | 15.2 µM (inactive) | 4.45 µM (inactive) | 4.48 µM (inactive) | – | 7.93 µM (inactive) | 10.3 µM (inactive) | 20.3 µM (inactive) | 13.8 µM (inactive) | 3.01 | 13.4 µM (inactive) | 16.5 µM (inactive) | 5.48 µM (inactive) | 13.8 µM (inactive) | 3.84 µM (inactive) | 17.5 µM (inactive) | 1.81 µM (inactive)
12 | CCO/C=C\C12CCCC1NC(c1ccccc1)(c1ccccc1)O2 (configuration not stated) | 16.5 µM (inactive) | 48.8 µM (inactive) | 24 µM (inactive) | 25.7 µM (inactive) | 25.3 µM (inactive) | 23.2 µM (inactive) | 41.5 µM (inactive) | 35.8 µM (inactive) | – | 28 µM (inactive) | 31.5 µM (inactive) | 31 µM (inactive) | 27.9 µM (inactive) | 35.8 µM (inactive) | 43.9 µM (inactive) | 21.5 µM (inactive)
13 | C[C@@]12CCCC(=O)N1[C@@H](CO)C(c1ccccc1)O2 (some centres not stated) | > 100 µM (inactive) | > 100 µM (inactive) | > 100 µM (inactive) | > 100 µM (inactive) | > 100 µM (inactive) | > 100 µM (inactive) | > 100 µM (inactive) | > 100 µM (inactive) | > 100 | > 100 µM (inactive) | > 100 µM (inactive) | > 100 µM (inactive) | > 100 µM (inactive) | > 100 µM (inactive) | > 100 µM (inactive) | –
14 | C[C@@H](c1ccccc1)N(CC#N)C1CCC[C@H]1O (some centres not stated) | – | > 100 µM (inactive) | > 100 µM (inactive) | > 100 µM (inactive) | > 100 µM (inactive) | > 100 µM (inactive) | > 100 µM (inactive) | > 100 µM (inactive) | > 100 | > 100 µM (inactive) | > 100 µM (inactive) | > 100 µM (inactive) | > 100 µM (inactive) | > 100 µM (inactive) | > 100 µM (inactive) | > 100 µM (inactive)
